Data on 15 compounds can be found in patent US11932630B2, “Heteroaryl aminopropanol derivatives” (NOVARTIS AG, priority 2021, dated 2024).

One data set in a line: Hygroscopicity by DVS. The data set is classed as physicochemical. The note with it: for Hygroscopicity (DVS), moisture / water vapor absorbed: at 95% RH.
Data set [1] in a line: Loss on drying by TGA after storage at 92 % RH. The format is physicochemical. The conditions noted are these: heating rate 10 K/min, % @ °C, temperature in the line below (100, 230, 170, 195 °C). How it is done:
Thermoaravimetric Analysis (TGA):
TGA curves were obtained using a TA-instrument Q5000. 0.5-2 mg of sample was placed into an open aluminum pan. The TGA curve was measured at 10° C./min between 30-300° C. The LoD (Loss of drying) was calculated between 30° C. and 100° C. or 150° C. The weight loss is plotted against the measured sample temperature. Temperatures are reported in degrees Celsius (° C.) and weight loss in %.

The target of another data set is T1, human LTA4H (Homo sapiens, UniProt P09960).
T1 sequence (P09960 1-611): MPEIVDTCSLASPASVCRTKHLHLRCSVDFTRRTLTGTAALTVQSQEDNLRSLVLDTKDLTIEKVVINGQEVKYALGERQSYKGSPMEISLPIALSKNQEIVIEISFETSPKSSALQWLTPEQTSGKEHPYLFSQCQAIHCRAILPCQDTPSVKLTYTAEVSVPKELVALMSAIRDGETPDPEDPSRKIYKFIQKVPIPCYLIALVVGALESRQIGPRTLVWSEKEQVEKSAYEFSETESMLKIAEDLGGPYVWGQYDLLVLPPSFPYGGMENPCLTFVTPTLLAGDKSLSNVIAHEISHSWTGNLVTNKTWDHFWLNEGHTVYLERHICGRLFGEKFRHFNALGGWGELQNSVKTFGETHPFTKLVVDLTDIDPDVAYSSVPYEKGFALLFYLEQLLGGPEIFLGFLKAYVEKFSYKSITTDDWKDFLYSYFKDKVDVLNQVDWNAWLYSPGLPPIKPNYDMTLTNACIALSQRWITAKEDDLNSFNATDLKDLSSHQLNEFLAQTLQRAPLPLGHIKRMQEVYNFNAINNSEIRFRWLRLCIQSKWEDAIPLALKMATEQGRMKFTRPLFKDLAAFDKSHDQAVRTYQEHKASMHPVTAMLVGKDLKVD
In words: Human LTA4H enzyme assay (Arg-AMC substrate). The data set is classed as biochemical. The conditions noted are these: Arg-AMC 600 μM, 9 nM human LTA4H, 15 min pre-incubation; mean values of at least 3 measurements; read-out: ArgAMC IC50. On the procedure:
a) Human LTA4H Enzyme Assay:
[…] (LTA4H) catalyzes the vinylogous hydrolysis of the epoxide, leukotriene A4 (LTA4) into the pro-inflammatory mediator LTB4.
For compound testing, compounds are delivered as 10 mM stock solutions in 90% DMSO (10% water) in matrix tubes. […] A final substrate concentration of 600 μM, which is around the KM value of Arg-AMC, at a final enzyme concentration of 9 nM is chosen. Upon addition of the substrate, the plate is immediately placed in a fluorescence reader and the fluorescence is measured every 10 minutes for 60 minutes using the filter setting λ excitation=380 nm and A emission=460 nm. […] Raw data is converted to rate (moles per minute) using the AMC calibration curve calculated from the AMC standards. The data is analyzed in GraphPad Prism (GraphPad software Inc.) using non-linear regression to determine IC50 values of LTA4H inhibitors.

In data set [2] the test system is LTB4 biosynthesis in human whole blood. In words: Human whole blood assay (hWB), inhibition of LTB4 biosynthesis. The note with it: human blood diluted 1:3, 4 hours with compound, 10 μg/ml A23187 for 15 min, eicosanoid by ELISA; read-out: hWB IC50. The format is cell-based. On the procedure:
b) Human Whole Blood Assay:
Compounds are tested in a human whole blood assay (hWB) to test their ability to inhibit LTB4 biosynthesis in a human cellular system. To this end, fresh blood is collected in heparinized vacutainers by venipuncture from volunteers. Blood is diluted 1:3 with RPM (Roswell Park Memorial Institute) medium and aliquots of 200 μL are transferred to 96-well round bottom cell culture plates. For compound testing, compounds are delivered as 10 mM stock solutions in 90% DMSO in matrix tubes. […] 4 μL of compound dilution or vehicle is added to 200 μL of blood and incubated for 4 hours at 37° C. in a humidified incubator. […] Incubation is terminated by centrifugation at 300 g for 10 min at 22° C. Plasma supernatant is taken and transferred to a 96 well plate for eicosanoid determination by ELISA (Assay designs) according to the manufacturer's protocol after 1:20 dilution in assay buffer. The data is analyzed in GraphPad Prism (GraphPad software Inc.) using non-linear regression to determine IC50 values of LTA4H inhibitors.
On the technique in general: In an ELISA, binding on a coated surface is turned into a signal by an enzyme label.

With `N[C@H](CO)Cn1ccc(-c2ccc(Oc3ncc(-c4ccn[nH]4)cc3F)cc2)n1` [Example 43, (S)-2-amino-3-(3-(4-((3-fluoro-5-(1H-pyrazol-5-yl)pyridin-2-yl)oxy)phenyl)-1H-pyrazol-1-yl)propan-1-ol], the “Hygroscopicity (DVS), moisture / water vapor absorbed” value in “Hygroscopicity by DVS” (listed as hydrochloride salt (Form E)) is 0.6%. The “Loss on drying by TGA, After 1 day at 92 % RH” value (“Loss on drying … at 92 % RH” below) in data set [1] (listed as Ex 43) is given as 0.30 @ %.

With `N[C@H](CO)Cn1ccc(-c2ccc(Oc3ncc(-c4ccn[nH]4)cc3F)cc2)n1` [Example 44, (S)-2-amino-3-(3-(4-((3-fluoro-5-(1H-pyrazol-3-yl)pyridin-2-yl)oxy)phenyl)-1H-pyrazol-1-yl)propan-1-ol], the “Hygroscopicity (DVS), moisture / water vapor absorbed” value is reported as 0.32% @ 95% RH in “Hygroscopicity by DVS” and “about 0.3%” in “Hygroscopicity by DVS” (listed as hippuric acid salt (Form B)). Moreover, the “Loss on drying … at 92 % RH” value in data set [1] (listed as Ex 44) is 0.21 @ %.

As for `N[C@H](CO)Cn1ccc(-c2ccc(Oc3ncc(-c4cc[nH]n4)cc3F)cc2)n1` [Example 46, (S)-2-amino-3-(3-(4-((3-fluoro-5-(1H-pyrazol-3-yl)pyridin-2-yl)oxy)phenyl)-1H-pyrazol-1-yl)propan-1-ol], the “Loss on drying … at 92 % RH” value in data set [1] (listed as Ex 46) is on record as 0.96 @ %.

Consider `C[C@H](Cc1ccccc1)Oc1ccc(-c2noc(C[C@H](N)CO)n2)cc1` [Example 17, (S)-2-amino-3-(3-(4-(((R)-1-phenylpropan-2-yl)oxy)phenyl)-1,2,4-oxadiazol-5-yl)propan-1-ol], for which the values for the IC50 (at human LTA4H; in data set [2]) were 16.7 nM and 297 nM, respectively.

On to `N[C@H](CO)Cc1nc(-c2cccc(Oc3ccc(Cl)cn3)c2)no1` [Example 02, (S)-2-amino-3-(3-(3-((5-chloropyridin-2-yl)oxy)phenyl)-1,2,4-oxadiazol-5-yl)propan-1-ol], for which the IC50 stood at 2.1 nM at human LTA4H and 72 nM in data set [2].

In the case of `N[C@H](CO)Cn1nnc(-c2ccc(Oc3ncc(-c4ccn[nH]4)cc3F)cn2)n1` [Example 22, (S)-2-amino-3-(5-(5-((3-fluoro-5-(1H-pyrazol-5-yl)pyridin-2-yl)oxy)pyridin-2-yl)-2H-tetrazol-2-yl)propan-1-ol], the half-inhibitory concentration (IC50) on human LTA4H came out at 2.7 nM; in data set [2] it was 89 nM.

Turning to `N[C@H](CO)Cn1ccc(-c2ccc(Oc3ncc(-c4ccn[nH]4)cc3F)cn2)n1` [Example 21, (S)-2-amino-3-(3-(5-((3-fluoro-5-(1H-pyrazol-5-yl)pyridin-2-yl)oxy)pyridin-2-yl)-1H-pyrazol-1-yl)propan-1-ol], the IC50 amounted to 3.1 nM at human LTA4H and 123 nM in data set [2].

As for `N[C@H](CO)Cn1nnc(-c2ccc(Oc3ccc(Cl)cc3)cc2)n1` [Example 27, (S)-2-Amino-3-(5-(4-(4-chlorophenoxy)phenyl)-2H-tetrazol-2-yl)propan-1-ol], the IC50 on human LTA4H was 3.3 nM; in data set [2] it was 214 nM.

For `N[C@@H](CO)Cn1nnc(-c2ccc(Oc3ccc(Cl)cn3)cc2)n1` [Example 31, (R)-2-Amino-3-(5-(4-((5-chloropyridin-2-yl)oxy)phenyl)-2H-tetrazol-2-yl)propan-1-ol], the IC50 at human LTA4H was determined as 4.5 nM; in data set [2], 179 nM.

As for `N[C@H](CO)Cc1noc(-c2ccc(Oc3ccc(Cl)cn3)cc2)n1` [Example 06], the IC50 amounted to 9.4 nM at human LTA4H and 510 nM in data set [2].

With `N[C@H](CO)Cc1nc(-c2ccc(Oc3ccc(Cl)cn3)cc2)no1` [Example 16, (S)-2-amino-3-(3-(4-((5-chloropyridin-2-yl)oxy)phenyl)-1,2,4-oxadiazol-5-yl)propan-1-ol], the results for the IC50 (at human LTA4H; in data set [2]) were 2.4 nM and 229 nM, respectively.

Take `N[C@H](CO)Cc1nc(-c2cccc(Oc3ccc(-c4ccn[nH]4)cn3)c2)no1` [Example 09, (S)-3-(3-(3-((5-(1H-pyrazol-5-yl)pyridin-2-yl)oxy)phenyl)-1,2,4-oxadiazol-5-yl)-2-aminopropan-1-ol]: the IC50 amounted to 2.5 nM at human LTA4H and 74 nM in data set [2].

`N[C@H](CO)Cn1ccc(-c2ccc(Oc3ncc(-c4ccn[nH]4)cc3F)cc2)n1` [Example 45, (S)-2-amino-3-(3-(4-((3-fluoro-5-(1H-pyrazol-5-yl)pyridin-2-yl)oxy)phenyl)-1H-pyrazol-1-yl)propan-1-ol]: the “Hygroscopicity (DVS), moisture / water vapor absorbed” value in the data set “Hygroscopicity by DVS” (listed as Modification A) is given as “about 0.5%”; in “Hygroscopicity by DVS” (listed as hippurate salt (Form A)), 0.5%.

Regarding `N[C@H](CO)Cn1ccc(-c2ccc(Oc3ncc(-c4cc[nH]n4)cc3F)cc2)n1` [Example 42, (S)-2-amino-3-(3-(4-((3-fluoro-5-(1H-pyrazol-3-yl)pyridin-2-yl)oxy)phenyl)-1H-pyrazol-1-yl)propan-1-ol], in “Hygroscopicity by DVS” (above 70% RH, transforming into a hydrated form), the “Hygroscopicity (DVS), moisture reversibly absorbed” value turned out to be 3%. In “Hygroscopicity by DVS”, the “Hygroscopicity (DVS), moisture / water vapor absorbed” value is 2.97 @ 95%. Further, the “Loss on drying … at 92 % RH” value in data set [1] (listed as Ex 42) is given as 2.46 @ %.

Regarding `N[C@H](CO)Cn1nnc(-c2ccc(Oc3ccc(Cl)cn3)cc2)n1` [Example 34, (S)-2-Amino-3-(5-(4-((5-chloropyridin-2-yl)oxy)phenyl)-2H-tetrazol-2-yl)propan-1-ol], the figures for the IC50 (on human LTA4H; in data set [2]) were 4 nM and 800 nM, respectively.

One may read the IC50 as the concentration needed to halve the response being measured.
